Values quoted from earlier work, collected in patent US20100317631A1, “Gel Composition and Transcrotal Application of a Composition for the Treatment of Hypogonadism” (Dr. August Wolff GmbH & Co. Arzneimittel, priority 2000, published 2010).

[1] = intra muscular, standard dosage 250 mg

SMILES: CCCCCCC(=O)O[C@H]1CC[C@H]2[C@@H]3CCC4=CC(=O)CC[C@]4(C)[C@H]3CC[C@]12C [testosterone enanthat]
- terminal half-time value (intra muscular administration): 4.5 days
- testosterone concentrations in serum achieved [1]: up to 50 nmol/l
- time at which serum testosterone passes the lower limit of normal range [1]: > 12 days
